Experimental data taken from patent publication US20210368837A1, “BOEHMERIA NIVEA COMPOSITIONS AND METHODS FOR TASTE MODULATION” (INTERNATIONAL FLAVORS & FRAGRANCES INC., priority 2018, published 2021).

Columns and labels:
[1] = Descriptive sensory evaluation of traumatic acid and 3-dodecenedioic acid in sugar water; conditions: 5 ppm in sugar water (4% sucrose), summary statement
Method: Sugar water (4% sucrose in drinking water) was prepared and used as a base solution. Traumatic acid (purchased from Cayman Chemical Company) and 3-dodecenedioic acid (isolated from a B. nivea extract) were added to the sugar water and taste descriptive sensory evaluations were performed (Table 2).

[2] = Descriptive sensory evaluation of traumatic acid in different applications
Method: Descriptive sensory evaluations were carried out using different amounts of traumatic acid in different applications.

[3] = Comparison of sweetness and mouthfeel enhancement and off-flavor masking of sebacic acid with analogs; conditions: at 2 ppm; analogs: adipic, pimelic, suberic, undecanedioic, dodecanedioic, 1,11-undecanedicarboxylic, tetradecanedioic, hexadecanedioic acid
[4] = Descriptive sensory evaluation of sebacic acid in different applications
Method: Descriptive sensory evaluations were carried out using different amounts of sebacic acid in different applications.

| Compound | Enhancement of sweetness and mouthfeel of sugar water [1] | Taste Evaluation ([2]; traumatic acid 40 ppm in 3% Sugar + 0.05% Citric Acid Water Solution) | Taste Evaluation ([2]; traumatic acid 40 ppm in Water) | Sweetness and mouthfeel enhancement as well as off-flavor masking, compared among dicarboxylic acids [3] | Taste Evaluation ([4]; sebacic acid 40 ppm in 3% Sugar + 0.05% Citric Acid Water Solution) | Taste Evaluation ([4]; sebacic acid 40 ppm in Water) |
| --- | --- | --- | --- | --- | --- | --- |
| O=C(O)C=CCCCCCCCCC(=O)O [Traumatic acid, 2-dodecenedioic acid] | enhanced the sweetness and mouthfeel of sugar water | Fatty and oily | Fatty and oily | the strongest and the longest-lasting effect |  |  |
| O=C(O)CCCCCCCCC(=O)O [Sebacic Acid, decanedioic acid] |  |  |  |  | Fatty and oily | Fatty and oily |
| O=C(O)CC=CCCCCCCCC(=O)O [3-Dodecenedioic acid, 3-dodecenedioic acid] | enhanced the sweetness and mouthfeel of sugar water |  |  | the strongest and the longest-lasting effect |  |  |
